The values below come from paper PMC5988308, “Rhodanine derivatives as potent anti-HIV and anti-HSV microbicides” (PLoS ONE, 2018).

Molecules are shown by their SMILES. In brackets after ≈: the same amount, converted by molar mass. Several values for one entry are separate records, joined by “and”; a condition that tells them apart may be missing. Equal entries are not always repeated.

The test system of one data set is HSV-2. The data set can be described thus: HSV-2 plaque reduction assay on Vero cells. Type of data set: cell-based. The note with it: for EC50 / EC90: Human alphaherpesvirus 2, Vero; for EC50: read-out: HSV-2 EC50; for EC90: read-out: HSV-2 EC90; for SI (CC50/EC50), HSV-2: Vero cells. As to the method: Clinical isolates of HSV-1 and HSV-2 were kindly provided by Prof. M. Pistello, University of Pisa, Italy. HSV-1 and HSV-2 strains were propagated and titrated by plaque assay on Vero cells. A HSV-2 strain with phenotypic resistance to acyclovir was generated by serial passage in the presence of increasing concentrations of acyclovir, as previously described.
The effect of the rhodanine derivatives on HSV infection was evaluated by plaque reduction assay. Vero cells were pre-plated 24 h in advance in 24-well plates at a density of […]. Increasing concentrations of compounds were mixed with HSV-2 (MOI 0.001 pfu/cell) or HSV-2 acyclovir resistant (MOI 0.001) or HSV-1 (MOI 0.0005) or and incubated for 1 hour at 37°C. The mixtures were subsequently added to the cells, which were then incubated at 37°C for 2 h. The virus inoculum was then removed and the cells washed and overlaid with a medium containing 1.2% methylcellulose (Sigma). After further incubation at 37°C for 24 h (HSV-2 and HSV-2 R Acy) or 48 h (HSV-1), cells were fixed and stained with 0.1% crystal violet in 20% ethanol and viral plaques counted. The effective concentration producing 50% reduction (EC50) and 90% reduction (EC90) in plaque formation was determined using Prism software by comparing drug-treated with wells treated with medium and solvent. The selectivity index (SI) was calculated by dividing the CC50 by the EC50 value.
All results are presented as the mean values from three independent experiments. The EC50 values for inhibition curves were calculated by regression analysis using the software GraphPad Prism (GraphPad Software, San Diego, California, U.S.A.) by fitting a variable slope-sigmoidal dose–response curve. Acyclovir was purchased from Sigma Aldrich (Milan, Italy).
(Plaque reduction counts the foci of infection that form in a cell layer.)

A short description of data set [1]: Parallel Artificial Membrane Permeability Assay (PAMPA). Type of data set: in vitro ADME. The note with it: pH 7.4, 5 h. As to the method: Donor solution (0.5 mM) was prepared by diluting 1 mM dimethylsulfoxide (DMSO) compound stock solution using phosphate buffer (pH 7.4, 0.025 M). Filters were coated with 5 μL of a 1% (w/v) dodecane solution of L-α-phosphatidylcholine. Donor solution (150 μL) was added to each well of the filter plate. To each well of the acceptor plate were added 300 μL of solution (50% DMSO in phosphate buffer). All compounds were tested in three different plates on different days. The sandwich was incubated for 5 h at room temperature under gentle shaking. After the incubation time, the plates were separated, and samples were taken from both receiver and donor sides and analyzed using UV/HPLC-MS gradient method above reported. Permeability (Papp) for PAMPA, were calculated according to the following equation, obtained from Wohnsland and Faller and Sugano [37] equation with some modification in order to obtain permeability values in cm s-1, Papp=VDVA/(VD+VA)At−ln(1−r) where VA is the volume in the acceptor well, VD is the volume in the donor well (cm^3), A is the “effective area” of the membrane (cm^2), t is the incubation time (s) and r the ratio between drug concentration in the acceptor and equilibrium concentration of the drug in the total volume (VD+VA). Drug concentration is estimated by using the peak area integration.
For orientation: PAMPA measures passive passage across an artificial lipid membrane.

In a further data set the test system is HPV-16 PsVs. Description: HPV-16 inhibition assay in HeLa cells. Type of data set: cell-based. The following applies: up to 50 μM. As to the method: Plasmids and 293TT cells used for pseudovirus (PsV) production were kindly provided by John Schiller (National Cancer Institute, Bethesda, MD). 293TT cell line, derived from human embryonic kidney cells transformed with the simian virus 40 (SV40) large T antigen, was cultured in DMEM (Gibco-BRL, Gaithersburg, MD) supplemented with heat inactivated 10% FCS (Gibco- BRL), Glutamax-I 1% (Invitrogen, Carlsbad, CA) and nonessential amino acids 1% (Sigma Aldrich, Steinheim, Germany). HPV-16 PsVs were produced as described in Cagno et al 2015. 293TT cells were transfected with plasmid expressing the papillomavirus major and minor capsid proteins (L1 and L2, respectively), together with a reporter plasmid expressing GFP. Capsids were allowed to mature overnight in cell lysate; the clarified supernatant was then loaded on top of a density gradient of 27 to 33 to 39% Optiprep at room temperature for 3 h. The material was centrifuged at 28000 rpm for 16 h at 4°C in an SW41.1 rotor (Beckman Coulter, Inc., Fullerton, CA) and then collected by bottom puncture of the tubes. […] The L1 protein content of PsV stocks was determined by comparison with bovine serum albumin standards in Coomassie-stained SDS-polyacrylamide gels. […]

Data set [2] can be described thus: Aqueous (thermodynamic) solubility. Type of data set: physicochemical. The note with it: thermodynamic from solid, water, 20°C, read-out: Water Solub. As to the method: Each solid compound (1 mg) was added to 1 mL of water. Each sample was mixed at 20°C, in a shaker water bath for 24 h. The resulting suspension was filtered through a 0.45 μm nylon filter (Acrodisc). The concentration of solubilized compounds weres determined by UV/LC-MS (performed in triplicate) by comparison with the appropriate calibration curve that was obtained from samples of the compound dissolved in methanol at different concentrations.

Data set [3] can be described thus: Storage stability and rheological characterization of gel. Type of data set: physicochemical. The note with it: 50 μM, 25°C in the dark. As for the experimental part:
All the semi-solid formulations were prepared adding at the pre-gel solution reported above hydroxyethyl cellulose (HEC) (1.8% w/v). In all samples, 0.2% v/v propionic acid was added to aqueous solution in order to preserve form bacteria and mold contamination. HEC was dispersed in the pre-gel solution at 25°C under magnetic stirring, overnight. Gel containing compound 2 was stored at 25°C in the dark. At predetermined data points, the formulations were visually inspected to evidence aggregate formations and the pH was measured. Rheological evaluations were performed using a rotational viscometer (Bohlin Model Visco 88, Bohlin Instruments, UK). Appropriate measuring spindles (C14 DIN) were used during viscosity measurements. Samples were loaded into the cup and allowed to equilibrate for 10 min at desired temperature (25 ± 0.5°C) and apparent viscosity (mPa s) was determined using a shear rate of 552 s^-1 over a 1 month period.

Regarding `O=C(O)c1ccc(-c2ccc(/C=C3\SC(=S)N(Cc4ccc(F)cc4)C3=O)o2)cc1O` [Compound 1], in the data set with HSV-2, the EC50 came to 168 ± 143 nM and the EC90 is 2110 ± 918 nM. The Papp in data set [1] is given as 1.28 1·10^-6cm/sec. In the data set on HPV-16 PsVs, the “antiviral activity on HPV-16” value is “without any antiviral activity on HPV-16”. In data set [2], the solubility at 24 h came out at 0.88 ± 0.1 µg/mL (≈ 1.93 µM).
On to `O=C(O)c1ccc(-c2ccc(/C=C3\SC(=S)N(Cc4ccc(Cl)cc4)C3=O)o2)cc1O` [Compound 2], for which, in the data set on HSV-2, the EC50 was found to be 11.9 ± 5.73 nM; the EC90 turned out to be 481 ± 299 nM; the “SI (CC50/EC50), HSV-2” value was 9400 and 9403. For the same compound, the Papp in data set [1] is listed as 1.26 1·10^-6cm/sec. The “antiviral activity on HPV-16” value in the data set on HPV-16 PsVs was “without any antiviral activity on HPV-16”. For the same compound, the “recovery after 1 month of storage” value in data set [3] is “about 100%”. In addition, the solubility at 24 h in data set [2] turned out to be 0.52 ± 0.13 µg/mL (≈ 1.1 µM).
Regarding `O=C(O)c1ccc(-c2ccc(/C=C3\SC(=S)N(CCc4ccc(F)cc4)C3=O)o2)cc1O` [Compound 9a, (Z)-4-(5-((3-(4-fluorophenethyl)-4-oxo-2-thioxothiazolidin-5-ylidene)methyl)furan-2-yl)-2-hydroxybenzoic acid], the melting point was 292 °C (dec.). For the same compound, in the data set with HSV-2, the EC50 amounted to 345 ± 168 nM; the EC90 came out at 426 ± 56.3 nM; the “SI (CC50/EC50), HSV-2” value was over 869. Moreover, the Papp in data set [1] is reported as 0.4 1·10^-6cm/sec. Also, the solubility at 24 h in data set [2] stood at 0.54 ± 0.08 µg/mL (≈ 1.15 µM).
Take `Cc1ccc(CCN2C(=O)/C(=C/c3ccc(-c4ccc(C(=O)O)c(O)c4)o3)SC2=S)cc1` [Compound 9b, (Z)-2-hydroxy-4-(5-((3-(4-methylphenethyl)-4-oxo-2-thioxothiazolidin-5-ylidene)methyl)furan-2-yl)benzoic acid]: the melting point was 258 °C (dec.). Besides, in the data set with HSV-2, the EC50 turned out to be 4.89 ± 1.59 nM; the EC90 was found to be 57.8 ± 22.6 nM; the “SI (CC50/EC50), HSV-2” value worked out at 2209. Moreover, the Papp in data set [1] is reported as 2.32 1·10^-6cm/sec. For the same compound, the solubility at 24 h in data set [2] came to 0.1 ± 0.08 µg/mL (≈ 0.215 µM).
`O=C(O)c1ccc(-c2ccc(/C=C3\SC(=S)N(CCCc4ccccc4)C3=O)o2)cc1O` [Compound 9c, (Z)-2-hydroxy-4-(5-((4-oxo-3-(3-phenylpropyl)-2-thioxothiazolidin-5-ylidene)methyl)furan-2-yl)benzoic acid]: the melting point is 248 °C (dec.). For the same compound, in the data set on HSV-2, the EC50 amounted to 52 ± 21.2 nM; the concentration for an effect of 90% (EC90) was 422 ± 225 nM; the “SI (CC50/EC50), HSV-2” value came out at 3936. Further, the Papp in data set [1] is 1.23 1·10^-6cm/sec. Besides, the solubility at 24 h in data set [2] is 0.3 ± 0.07 µg/mL (≈ 0.644 µM).
As to `CCc1ccc(CCN2C(=O)/C(=C/c3ccc(-c4ccc(C(=O)O)c(O)c4)o3)SC2=S)cc1` [Compound 9d, (Z)-4-(5-((3-(4-ethylphenethyl)-4-oxo-2-thioxothiazolidin-5-ylidene)methyl)furan-2-yl)-2-hydroxybenzoic acid], the melting point is 273 °C (dec.). In addition, in the data set with HSV-2, the EC50 is 28.7 ± 7.11 nM; the EC90 stood at 140 ± 61.2 nM; the “SI (CC50/EC50), HSV-2” value was 600 and 604.3. Also, the Papp in data set [1] is listed as 1.50 1·10^-6cm/sec. In data set [2], the solubility at 24 h was determined as 0.25 ± 0.09 µg/mL (≈ 0.521 µM).
Turning to `O=C(O)c1ccc(-c2ccc(/C=C3\SC(=S)N(c4ccc(F)c(Cl)c4)C3=O)o2)cc1O` [Compound 9e, (Z)-4-(5-((3-(3-chloro-4-fluorophenyl)-4-oxo-2-thioxothiazolidin-5-ylidene)methyl)furan-2-yl)-2-hydroxybenzoic acid], in the data set on HSV-2, the EC50 is 50.3 ± 10.5 nM; the EC90 came out at 206 ± 85.5 nM; the “SI (CC50/EC50), HSV-2” value is over 1988. In addition, in data set [1], the Papp is given as 0.92 1·10^-6cm/sec. Besides, the solubility at 24 h in data set [2] turned out to be 0.72 ± 0.12 µg/mL (≈ 1.51 µM).
As to `O=C(O)c1ccc(-c2ccc(/C=C3\SC(=S)N(Cc4ccc(Cl)c(F)c4)C3=O)o2)cc1O` [Compound 9f, (Z)-4-(5-((3-(4-chloro-3-fluorobenzyl)-4-oxo-2-thioxothiazolidin-5-ylidene)methyl)furan-2-yl)-2-hydroxybenzoic acid], in the data set with HSV-2, the EC50 stood at 26.4 ± 11.1 nM; the EC90 came to 153 ± 159 nM; the “SI (CC50/EC50), HSV-2” value was found to be 298. For the same compound, the Papp in data set [1] is on record as 0.87 1·10^-6cm/sec. Moreover, the solubility at 24 h in data set [2] worked out at 0.73 ± 0.14 µg/mL (≈ 1.49 µM).

In general, EC50 refers to the concentration giving half of the maximal effect. A word on the EC90: it is the concentration at which the effect reaches the 90% level. The melting point is the temperature of the solid-liquid transition.
